Like-named read-outs stand apart in the source and are kept apart here.
How the values were obtained:
[1] = test system: Bacillus cereus (B. cereus); assay: In vitro antibacterial activity, progressive double dilutions, culture turbidity; type: cell-based
Source text: (§1) The growth of bacteria was estimated by measuring the turbidity of the culture, as previously reported. […] The pH of the media was adjusted to 7.0.

[2] = test system: Bacillus subtilis (B. subtilis); assay: as above; type: cell-based
Source text: as §1

[3] = test system: Staphylococcus aureus (S. aureus); assay: as above; type: cell-based
Source text: as §1

[4] = test system: Escherichia coli (E. coli); assay: as above; type: cell-based
Source text: as §1

[5] = test system: calf-thymus (CT) DNA; assay: CT DNA interaction by UV-visible spectroscopy; details: upon addition of CT DNA
Description: The UV-visible spectra of CT DNA solution (1.5 × 10^−4 M) were recorded in the presence of each compound at diverse [compound]/[DNA] mixing ratios (r).

[6] = test system: MRC5 human normal lung cells; assay: MTT cytostatic/cytotoxic assay; type: cell-based; details: MRC5, 48 h treatment
Description: The cell lines were obtained from the American Type of Culture collection (ATCC), except HuP-T3 which was kindly donated from University of Crete, School of Medicine, Greece, and were grown in different culture medium according to the instructions.
For the determination of the cell viability, it was employed the MTT assay. Cells were plated in 96-well plate at a density of 1 × 10^4 cells/mL per well and maintained for 72 h at 37 °C in a 5% CO2 incubator and grown as monolayers. […] The viability of cultured cells was estimated by a (3-(4,5-imethylthiazol-2-yl)-2,5-diphenyltetrazolium bromide (MTT) metabolic assay as previously described.
In brief, MTT (Sigma, St Louis, Missouri, USA) was dissolved in PBS in a concentration of 5 mg/mL, filter sterilized, and stored at 4 °C. Then, 50 μL of stock solution was added to each culture and incubated for 3 h at 37 °C. Formazan crystals were solubilized by DMSO (100 μL). Absorbance of the converted dye was measured at a wavelength of 540 nm on ELISA reader (VersaMax Microplate Reader Orleans, USA). […] Using seven absorbance measurements [time 24 h (Ct24), control growth 72 h (Ct72), and test growth in the presence of drug at five concentration levels (Tt72x)], the percentage of growth was calculated at each level of the drug concentrations. The percentage growth inhibition was calculated according to National Cancer Institute (NCI) as: {[(Tt72x) − (Ct24)]/[(Ct72) − (Ct24)]} × 100 for concentrations for which Tt72x>Ct24 and {(Tt72x) − (Ct24)]/(Ct24)} × 100 for concentrations for which Tt72x<Ct24. […] All experiments were carried out in triplicate. A significant difference was presumed to exist when p ≤ 0.05 (two tailed paired t test).

[7] = test system: EB–DNA conjugate (CT DNA); assay: EB-DNA competitive binding, fluorescence quenching; design: species or system calf
Source text: The potential EB-displacing ability of the compounds was studied by a stepwise addition of a compound’s solution into the EB–DNA solution. The resultant changes were monitored by recording the variation of fluorescence emission spectra with excitation wavelength at 540 nm. […] The Stern-Volmer constant (KSV, in M^−1) is used to evaluate the quenching efficiency for each compound according to the Stern-Volmer equation (Equation (2)):(2) Io/I=1+kqτ0[Q]=1+KSV[Q] where Io and I are the emission intensities of the EB–DNA solution in the absence and the presence of the quencher, respectively, [Q] is the concentration of the quencher, τo = the average lifetime of the emitting system without the quencher and kq = the quenching constant. KSV may be obtained from the Stern-Volmer plots by the slope of the diagram Io/I versus [Q]. Taking τo = 23 ns as the fluorescence lifetime of the EB–DNA system, the quenching constants (kq, in M^−1s^−1) of the compounds can be determined according to Equation (3):KSV = kqτo(3)

[8] = value in parentheses, mean ± SD, read-out: IC50

[Ag(mtdztH)(dppe)(NO3)]n [Compound 4] was tested, and the IC50 [1] was 5 µg/mL, the MIC [1] was 50 µg/mL and the MIC ([1]; value in parentheses) was 45 μΜ. The IC50 [1, 8] was 4.6 ± 0.7 µM, the IC50 [2] was 4.9 µg/mL and the MIC [2] was 30 µg/mL. The MIC ([2]; value in parentheses) was 27 μΜ, the IC50 [2, 8] was 4.5 ± 0.8 µM and the IC50 [3] was 8 µg/mL. For the same substance, the MIC [3] was 50 µg/mL, the MIC ([3]; value in parentheses) was 45 μΜ and the IC50 [3, 8] was 7.3 ± 1.6 µM. The IC50 [4] was 11 µg/mL, the MIC ([4]; ampicillin reference against E.coli (BL21)) was “higher than 100 μg/mL” and the MIC ([4]; value in parentheses) was 91 μΜ. For the same substance, the IC50 [4, 8] was 15.4 ± 2.4 µM, the “percentage of hyper-/hypochromism ΔA/Aο” value ([5]; DMSO solution, + hyperchromism, – hypochromism) was “–13%” and the “hypochromism (intensity decrease) of absorption band at 272 nm” value [5] was “up to 13%”. For the same substance, the IC50 ([6]; cytocidal/cytotoxic) was 4.4 ± 0.08 µM, the GI50 ([6]; growth inhibition) was 1200 ± 50 nM and the TGI ([6]; total growth inhibition) was 2.8±0.05 μΜ. For the same substance, the “EB-DNA Stern–Volmer constant KSV” value [7] was 5.68 (±0.20) × 10^4 M^−1 and the “EB–DNA fluorescence quenching ΔI/Iο” value ([7]; λex 540 nm) was 27.6%.

Source: article PMC9823356, “Inhibition of Cancer Cell Proliferation and Bacterial Growth by Silver(I) Complexes Bearing a CH3-Substituted Thiadiazole-Based Thioamide” (Molecules, 2023)
